Measured values: patent publication EP0554004A2, “Cephem compounds and antibacterial agents” (KATAYAMA SEIYAKUSYO CO. Ltd., priority 1992, dated 1993)
Structures can show the parent of a compound that is named as a salt.

Tests used:
clinically isolated MRSA = test: Antibacterial potency against clinically isolated MRSA (Test Example 2); assay type: cell-based, methicillin-resistant Staphylococcus aureus; settings: Staphylococcus aureus, 52 strains of clinically isolated MRSA; for MIC50: concentration inhibiting growth of 50% of the strains (Test Example 2); for MIC90: concentration inhibiting growth of 90% of the strains (Test Example 2)
Protocol: A test on the antibacterial potency against clinically isolated MRSA was conducted in the following way.
52 strains of clinically isolated MRSA were used, and MIC was determined for each of the strains according to the standard method of the Japan Chemotherapical Society as in Test Example 1. The minimum growth inhibitory concentration which inhibited growth of 50% of the strains tested was expressed as MIC50 (µg/ml), and the minimum growth inhibitory concentration which inhibited growth of 90% of the strains was expressed as MIC90 (µg/ml).
In this test, FMOX (flomoxef), IPM/CS (imipenem/cilastatin), CMZ (cefmetazole), MINO (minocycline) and DMPPC (methicillin) were used as control agents.

Proteus vulgalis OX-19 = test: MIC against standard strains (Test Example 1); assay type: cell-based; settings: Muller-Hinton agar, 37°C overnight
Protocol: (§1) By using each test strain cultured overnight at 37°C in a Muller-Hinton broth, there was prepared a bacterial solution with a bacterial cell population of 1 x 10^6 CFU/mi of the same bouillon. The bacterial solution was inoculated into the Muller-Hinton agar media each containing respectively one test agent and, after overnight incubation at 37°C, the minimum concentration that inhibited growth of the bacteria was determined and shown as MIC also in Table 1.
(§2) Staphylococcus aureus 167 and Staphylococcus aureus 195 used in the test were MRSA. CTM (cefotiam) and FMOX (flomoxef) were used as control agents.

[1] = tested on: Escherichia coli NIHJ JC-2; test: MIC against standard strains (Test Example 1); assay type: cell-based; settings: NIHJJC2, Muller-Hinton agar, 37°C overnight
Protocol: as §1, §2

[2] = tested on: Staphylococcus aureus Smith; test: MIC against standard strains (Test Example 1); assay type: cell-based; settings: Muller-Hinton agar, 37°C overnight
Protocol: as §1, §2

[3] = tested on: Staphylococcus aureus 209P JC-1; test: MIC against standard strains (Test Example 1); assay type: cell-based; settings: Muller-Hinton agar, 37°C overnight
Protocol: as §1, §2

[4] = tested on: Enterobacter cloacae ATCC 13407; test: MIC against standard strains (Test Example 1); assay type: cell-based; settings: ATCC13407, Muller-Hinton agar, 37°C overnight
Protocol: as §1, §2

[5] = tested on: Bacillus subtilis ATCC 6633; test: MIC against standard strains (Test Example 1); assay type: cell-based; settings: ATCC6633, Muller-Hinton agar, 37°C overnight
Protocol: as §1, §2

[6] = tested on: Citrobacter freundii ATCC 8090; test: MIC against standard strains (Test Example 1); assay type: cell-based; settings: ATCC8090, Muller-Hinton agar, 37°C overnight
Protocol: as §1, §2

[7] = tested on: Escherichia coli CSH2 (RK1); test: MIC against standard strains (Test Example 1); assay type: cell-based
Protocol: as §1, §2

[8] = tested on: Psuedomonas aeruginosa IFO 3445; test: MIC against standard strains (Test Example 1); assay type: cell-based; settings: Muller-Hinton agar, 37°C overnight
Protocol: as §1, §2

[9] = tested on: Pseudomonas aeruginosa NCTC 10490; test: MIC against standard strains (Test Example 1); assay type: cell-based; settings: NCTC10490, Muller-Hinton agar, 37°C overnight
Protocol: as §1, §2

[10] = tested on: Klebsiella pneumoniae IFO 3317; test: MIC against standard strains (Test Example 1); assay type: cell-based; settings: IFO3317, Muller-Hinton agar, 37°C overnight
Protocol: as §1, §2

[11] = tested on: Escherichia coli CSH2 (RE45); test: MIC against standard strains (Test Example 1); assay type: cell-based
Protocol: as §1, §2

[12] = tested on: Morganella morganii IFO 3848; test: MIC against standard strains (Test Example 1); assay type: cell-based; settings: IFO3848, Muller-Hinton agar, 37°C overnight
Protocol: as §1, §2

[13] = tested on: Proteus mirabilis IFO 3849; test: MIC against standard strains (Test Example 1); assay type: cell-based; settings: IFO3849, Muller-Hinton agar, 37°C overnight
Protocol: as §1, §2

[14] = tested on: Staphylococcus aureus 167; test: MIC against standard strains (Test Example 1); assay type: cell-based; settings: Staphylococcus aureus 167 (MRSA); Muller-Hinton agar, 37°C overnight
Protocol: as §1, §2

[15] = tested on: Klebsiella pneumoniae No. 42; test: MIC against standard strains (Test Example 1); assay type: cell-based; settings: Muller-Hinton agar, 37°C overnight
Protocol: as §1, §2

[16] = tested on: Staphylococcus aureus 195; test: MIC against standard strains (Test Example 1); assay type: cell-based; settings: Staphylococcus aureus 195 (MRSA); Muller-Hinton agar, 37°C overnight
Protocol: as §1, §2

[17] = tested on: Micrococcus luteus ATCC 9341; test: MIC against standard strains (Test Example 1); assay type: cell-based; settings: ATCC9341, Muller-Hinton agar, 37°C overnight
Protocol: as §1, §2

[18] = tested on: Serratia marcescens IAM 1184; test: MIC against standard strains (Test Example 1); assay type: cell-based; settings: IAM1184, Muller-Hinton agar, 37°C overnight
Protocol: as §1, §2

[19] = tested on: Staphylococcus epidermidis IAM 1296; test: MIC against standard strains (Test Example 1); assay type: cell-based; settings: IAM1296, Muller-Hinton agar, 37°C overnight
Protocol: as §1, §2

SMILES | MIC50 (clinically isolated MRSA) | MIC90 (clinically isolated MRSA) | MIC (Proteus vulgalis OX-19) | MIC [1] | MIC [2] | MIC [3] | MIC [4] | MIC [5] | MIC [6] | MIC [7] | MIC [8] | MIC [9] | MIC [10] | MIC [11] | MIC [12] | MIC [13] | MIC [14] | MIC [15] | MIC [16] | MIC [17] | other results
Nc1ccc[n+](CC2=C(C(=O)[O-])N3C(=O)[C@@H](NC(=O)/C(=N\O)c4csc(N)n4)[C@H]3SC2)c1 [Compound (3), 7β-[2-(2-aminothiazol-4-yl)-2-syn-hydroxyiminoacetamido]-3-[(3-amino-1-pyridinio)methyl]-3-cephem-4-carboxylate hydrochloride] | 3.94 µg/mL | 9.21 µg/mL | 0.39 µg/mL | 0.2 µg/mL | 0.39 µg/mL | 0.2 µg/mL | 3.13 µg/mL | 0.2 µg/mL | 0.2 µg/mL | 0.39 µg/mL | 6.25 µg/mL | 3.13 µg/mL | 0.1 µg/mL | 0.2 µg/mL | 0.05 µg/mL | 0.2 µg/mL | 12.5 µg/mL | 0.2 µg/mL | 3.13 µg/mL | 0.05 µg/mL | MIC [18]: 0.1 µg/mL; MIC [19]: 0.1 µg/mL
NC(=O)c1ccc[n+](CC2=C(C(=O)[O-])N3C(=O)[C@@H](NC(=O)/C(=N\O)c4csc(N)n4)[C@H]3SC2)c1 [Compound (1), 7β-[2-(2-aminothiazol-4-yl)-2-syn-hydroxyiminoacetamido]-3-[(3-carbamoyl-1-pyridinio)methyl]-3-cephem-4-carboxylic acid chloride] | 3.79 µg/mL | 11.4 µg/mL | 0.78 µg/mL | 0.39 µg/mL | 0.39 µg/mL | 0.2 µg/mL | 0.78 µg/mL | 0.39 µg/mL | 0.39 µg/mL | 0.78 µg/mL | 25 µg/mL | 3.13 µg/mL | 0.2 µg/mL | 0.39 µg/mL | 0.39 µg/mL | 0.39 µg/mL | 6.25 µg/mL | 0.78 µg/mL | 3.13 µg/mL | 0.05 µg/mL | MIC [18]: 0.2 µg/mL; MIC [19]: 0.1 µg/mL
CC(=O)c1ccc[n+](CC2=C(C(=O)[O-])N3C(=O)[C@@H](NC(=O)/C(=N\O)c4csc(N)n4)[C@H]3SC2)c1 [Compound (2), 7β-[2-(2-aminothiazol-4-yl)-2-syn-hydroxyiminoacetamido]-3-[(3-acetyl-1-pyridinio)methyl]-3-cephem-4-carboxylic acid chloride] | 3.77 µg/mL | 9.47 µg/mL | 0.39 µg/mL | 0.39 µg/mL | 0.39 µg/mL | 0.2 µg/mL | 1.56 µg/mL | 0.78 µg/mL | 0.39 µg/mL | 0.78 µg/mL | 25 µg/mL | 3.13 µg/mL | 0.39 µg/mL | 0.78 µg/mL | 0.2 µg/mL | 0.39 µg/mL | 12.5 µg/mL | 0.78 µg/mL | 6.25 µg/mL | 0.1 µg/mL | MIC [18]: 0.39 µg/mL; MIC [19]: 0.2 µg/mL
NC(=O)Nc1ccc[n+](CC2=C(C(=O)[O-])N3C(=O)[C@@H](NC(=O)/C(=N\O)c4csc(N)n4)[C@H]3SC2)c1 [Compound (4), 7β-[2-(2-aminothiazol-4-yl)-2-syn-hydroxyiminoacetamido]-3-[(3-ureido-1-pyridinio)methyl]-3-cephem-4-carboxylic acid chloride] | 2.17 µg/mL | 6.16 µg/mL | 0.78 µg/mL | 0.1 µg/mL | 0.2 µg/mL | 0.1 µg/mL | 0.39 µg/mL | 0.2 µg/mL | 0.1 µg/mL | 0.78 µg/mL | 12.5 µg/mL | 1.56 µg/mL | 0.1 µg/mL | 0.39 µg/mL | 0.05 µg/mL | 0.1 µg/mL | 12.5 µg/mL | 0.39 µg/mL | 3.13 µg/mL | 0.39 µg/mL | MIC [18]: 0.1 µg/mL; MIC [19]: 0.05 µg/mL
Nc1nc(/C(=N/O)C(=O)N[C@@H]2C(=O)N3C(C(=O)[O-])=C(C[n+]4ccc(-c5csc(N)n5)cc4)CS[C@H]23)cs1 [Compound (5), 7β-[2-(2-aminothiazol-4-yl)-2-syn-hydroxyiminoacetamido]-3-[[4-(2-aminothiazol-4-yl)-1-pyridi-i-nio]methyl]-3-cephem-4-carboxylic acid chloride] | 3.13 µg/mL | 8.69 µg/mL | 0.2 µg/mL | 0.2 µg/mL | 0.2 µg/mL | 0.2 µg/mL | 0.78 µg/mL | 0.2 µg/mL | 0.2 µg/mL | 0.2 µg/mL | 25 µg/mL | 1.56 µg/mL | 0.05 µg/mL | 0.05 µg/mL | 0.05 µg/mL | 0.1 µg/mL | 6.25 µg/mL | 0.1 µg/mL | 3.13 µg/mL | 0.025 µg/mL | MIC [18]: 0.2 µg/mL; MIC [19]: 0.1 µg/mL
